Source: US20240158446A1, “CYCLIC COMPOUND HAVING SELECTIVE INHIBITORY ACTION ON KRAS OVER HRAS AND NRAS” (CHUGAI SEIYAKU KABUSHIKI KAISHA, priority 2021, published 2024)

Legend:
[1] = biological target: GDP-bound HRAS wild-type protein (Homo sapiens, UniProt P01112); assay: Binding to HRAS by surface plasmon resonance (SPR), Single Cycle Kinetics; settings: SPR, GDP-bound HRAS wild-type protein vs GDP-bound KRAS wild-type protein
[2] = biological target: GDP-bound KRAS wild-type protein (Homo sapiens, UniProt P01116); assay: Binding to KRAS by surface plasmon resonance (SPR), Single Cycle Kinetics; settings: SPR, Single Cycle Kinetics, GDP-bound KRAS wild-type protein; read-out: KRAS KD
[3] = biological target: GDP-bound NRAS wild-type protein (Homo sapiens, UniProt P01111); assay: Binding to NRAS by surface plasmon resonance (SPR), Single Cycle Kinetics; settings: SPR, GDP-bound NRAS wild-type protein vs GDP-bound KRAS wild-type protein
Chain of GDP-bound NRAS wild-type protein (P01111 whole entry): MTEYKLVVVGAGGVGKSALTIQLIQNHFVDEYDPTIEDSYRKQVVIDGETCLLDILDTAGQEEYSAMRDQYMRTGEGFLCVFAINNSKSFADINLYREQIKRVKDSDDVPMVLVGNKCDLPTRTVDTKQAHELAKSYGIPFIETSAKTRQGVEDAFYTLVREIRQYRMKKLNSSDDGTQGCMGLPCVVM

Chain of GDP-bound KRAS wild-type protein (P01116 whole entry): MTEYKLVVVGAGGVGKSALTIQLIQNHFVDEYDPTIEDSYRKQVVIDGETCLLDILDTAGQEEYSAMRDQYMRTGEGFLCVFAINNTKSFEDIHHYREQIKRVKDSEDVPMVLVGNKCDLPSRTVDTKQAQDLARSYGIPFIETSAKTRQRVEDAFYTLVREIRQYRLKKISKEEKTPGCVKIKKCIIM
Chain of GDP-bound HRAS wild-type protein (P01112 whole entry): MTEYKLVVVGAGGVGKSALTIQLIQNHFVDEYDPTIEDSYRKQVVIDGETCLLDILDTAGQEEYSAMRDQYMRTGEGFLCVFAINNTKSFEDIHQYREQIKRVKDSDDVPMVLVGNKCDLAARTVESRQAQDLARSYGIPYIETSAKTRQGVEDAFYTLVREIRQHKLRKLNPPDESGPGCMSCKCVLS

## CCC[C@H]1C(=O)N[C@@H]([C@@H](C)CC)C(=O)N(C)CC(=O)N(C)[C@H]2C/C=C\CCN(C2=O)[C@@H](Cc2ccc(C)cc2)C(=O)N(C)CC(=O)N[C@@H](CCc2ccc(C(F)(F)F)c(Cl)c2)C(=O)N2C[C@H](OCC)C[C@H]2C(=O)NC2(CC(C)(C)C2)C(=O)N(C)[C@@H](CC(C)(C)C)C(=O)N(C)[C@H](C(=O)N(C)C)CC(=O)N1C [PP2230]
[1]
  HRAS/KRAS (ratio of KD value for HRAS to KD value for KRAS): A (a compound having 10 or more and less than 20 is denoted as A)
[2]
  Kd: 0.082 nM
[3]
  NRAS/KRAS (ratio of KD value for NRAS to KD value for KRAS): A (a compound having 10 or more and less than 20 is denoted as A)

## CCC[C@@H]1C[C@H]2C(=O)NC3(CCC3)C(=O)N(C)[C@@H](C3CCCC3)C(=O)N(C)[C@H](C(=O)N(C)C)CC(=O)N(C)[C@@H](CC(C)C)C(=O)N[C@@H]([C@@H](C)CC)C(=O)N(C)CC(=O)N(C)[C@H]3C/C=C\CCN(C3=O)[C@@H](Cc3ccc(C)cc3)C(=O)N(C)CC(=O)N[C@@H](CCc3cc(F)c(C(F)(F)F)c(F)c3)C(=O)N2C1 [PP2231]
[1]
  HRAS/KRAS (ratio of KD value for HRAS to KD value for KRAS): B (a compound having 3 or more and less than 10 is denoted as B)
[2]
  Kd: 0.18 nM
[3]
  NRAS/KRAS (ratio of KD value for NRAS to KD value for KRAS): A (a compound having 10 or more and less than 20 is denoted as A)

## CCCOC[C@H]1C(=O)N[C@@H]([C@@H](C)CC)C(=O)N(C)CC(=O)N(C)[C@H]2C/C=C\CCN(C2=O)[C@@H](Cc2ccc(C)cc2)C(=O)N(C)CC(=O)N[C@@H](CCc2ccc(C(F)(F)F)c(Cl)c2)C(=O)N2C[C@H](C)C[C@H]2C(=O)NC2(CC(C)(C)C2)C(=O)N(C)[C@@H](C2CCCC2)C(=O)N(C)[C@H](C(=O)N(C)C)CC(=O)N1C [PP2234]
[1]
  HRAS/KRAS (ratio of KD value for HRAS to KD value for KRAS): A (a compound having 10 or more and less than 20 is denoted as A)
[2]
  Kd: 0.19 nM
[3]
  NRAS/KRAS (ratio of KD value for NRAS to KD value for KRAS): A (a compound having 10 or more and less than 20 is denoted as A)

## CCC[C@@H]1C[C@H]2C(=O)NC3(CCC3)C(=O)N(C)[C@@H](C3CCCC3)C(=O)N(C)[C@H](C(=O)N(C)C)CC(=O)N(C)[C@@H](CCC)C(=O)N[C@@H]([C@@H](C)CC)C(=O)N(C)CC(=O)N(C)[C@H]3C/C=C\CCN(C3=O)[C@@H](Cc3ccc(C)cc3)C(=O)N(C)CC(=O)N[C@@H](CCc3ccc(C(F)(F)F)c(Cl)c3)C(=O)N2C1 [PP2238]
[1]
  HRAS/KRAS (ratio of KD value for HRAS to KD value for KRAS): A (a compound having 10 or more and less than 20 is denoted as A)
[2]
  Kd: 0.2 nM
[3]
  NRAS/KRAS (ratio of KD value for NRAS to KD value for KRAS): A (a compound having 10 or more and less than 20 is denoted as A)

## CCO[C@@H]1C[C@H]2C(=O)NC3(CC(C)(C)C3)C(=O)N(C)[C@@H](C3CCCC3)C(=O)N(C)[C@H](C(=O)N(C)CC)CC(=O)N(C)[C@H]3CCCCCc4ccc(cc4)C[C@@H](C(=O)N(C)CC(=O)N[C@@H](CCc4ccc(C(F)(F)F)c(OC)c4)C(=O)N2C1)N1CC/C=C\C[C@@H](C1=O)N(C)C(=O)CN(C)C(=O)[C@H]([C@@H](C)CC)NC3=O [PP2259]
[1]
  HRAS/KRAS (ratio of KD value for HRAS to KD value for KRAS): B (a compound having 3 or more and less than 10 is denoted as B)
[2]
  Kd: 0.12 nM
[3]
  NRAS/KRAS (ratio of KD value for NRAS to KD value for KRAS): A (a compound having 10 or more and less than 20 is denoted as A)

## CCO[C@@H]1C[C@H]2C(=O)NC3(CC(C)(C)C3)C(=O)N(C)[C@@H](C3CCCC3)C(=O)N(C)[C@H](C(=O)N(C)CC)CC(=O)N(C)[C@H]3CCCCCCc4ccc(cc4)C[C@@H](C(=O)N(C)CC(=O)N[C@@H](CCc4ccc(C(F)(F)F)c(OC)c4)C(=O)N2C1)N1CC/C=C\C[C@@H](C1=O)N(C)C(=O)CN(C)C(=O)[C@H]([C@@H](C)CC)NC3=O [PP2260, (1S,7S,11R,13S,19S,22S,26S,29S,35S,37Z)-19-cyclopentyl-11-ethoxy-N-ethyl-7-[2-[3-methoxy-4-(trifluoromethyl)phenyl]ethyl]-N,3,3′,3′,18,21,25,31,34-nonamethyl-29-[(1S)-1-methylpropyl]-2,5,8,14,17,20,24,27,30,33,55-undecaoxo-spiro[3,6,9,15,18,21,25,28,31,34,41-undecazapentacyclo[24.15.11.2^43,46.1^35,41.0^9,13]pentapentaconta-37,43(54),44,46(53)-tetraene-16,1′-cyclobutane]-22-carboxamide]
[1]
  HRAS/KRAS (ratio of KD value for HRAS to KD value for KRAS): A (a compound having 10 or more and less than 20 is denoted as A)
[2]
  Kd: 0.12 nM
[3]
  NRAS/KRAS (ratio of KD value for NRAS to KD value for KRAS): A (a compound having 10 or more and less than 20 is denoted as A)

## CCO[C@@H]1C[C@H]2C(=O)NC3(CCC3)C(=O)N(C)[C@@H](C3CCCC3)C(=O)N(C)[C@H](C(=O)N(C)C)CC(=O)N(C)[C@H]3CCCCCc4ccc(cc4)C[C@@H](C(=O)N(C)CC(=O)N[C@@H](CCc4cc(F)c(C(F)(F)F)c(F)c4)C(=O)N2C1)N1CC/C=C\C[C@@H](C1=O)N(C)C(=O)CN(C)C(=O)[C@H]([C@@H](C)CC)NC3=O [PP2261]
[1]
  HRAS/KRAS (ratio of KD value for HRAS to KD value for KRAS): A (a compound having 10 or more and less than 20 is denoted as A)
[2]
  Kd: 0.18 nM
[3]
  NRAS/KRAS (ratio of KD value for NRAS to KD value for KRAS): A (a compound having 10 or more and less than 20 is denoted as A)

## CCO[C@@H]1C[C@H]2C(=O)NC3(CCC3)C(=O)N(C)[C@@H](C3CCCC3)C(=O)N(C)[C@H](C(=O)N(C)C)CC(=O)N(C)[C@H]3CCCCCc4ccc(cc4)C[C@@H](C(=O)N(C)CC(=O)N[C@@H](CCc4ccc(C(F)(F)F)c(OC)c4)C(=O)N2C1)N1CC/C=C\C[C@@H](C1=O)N(C)C(=O)CN(C)C(=O)[C@H]([C@@H](C)CC)NC3=O [PP2262]
[1]
  HRAS/KRAS (ratio of KD value for HRAS to KD value for KRAS): B (a compound having 3 or more and less than 10 is denoted as B)
[2]
  Kd: 0.24 nM
[3]
  NRAS/KRAS (ratio of KD value for NRAS to KD value for KRAS): A (a compound having 10 or more and less than 20 is denoted as A)

## CCO[C@@H]1C[C@H]2C(=O)NC3(CCC3)C(=O)N(C)[C@@H](C3CCCC3)C(=O)N(C)[C@H](C(=O)N(C)C)CC(=O)N(C)[C@H]3CCCCCCc4ccc(cc4)C[C@@H](C(=O)N(C)CC(=O)N[C@@H](CCc4ccc(C(F)(F)F)c(OC)c4)C(=O)N2C1)N1CC/C=C\C[C@@H](C1=O)N(C)C(=O)CN(C)C(=O)[C@H]([C@@H](C)CC)NC3=O [PP2264]
[1]
  HRAS/KRAS (ratio of KD value for HRAS to KD value for KRAS): A (a compound having 10 or more and less than 20 is denoted as A)
[2]
  Kd: 0.11 nM
[3]
  NRAS/KRAS (ratio of KD value for NRAS to KD value for KRAS): AA (a compound having 20 or more is denoted as AA)

## CC[C@H](C)[C@@H]1NC(=O)[C@H](CC(C)C)N(C)C(=O)C[C@@H](C(=O)N(C)C)N(C)C(=O)[C@H](C2CCCC2)N(C)C(=O)C2(CCCC2)NC(=O)[C@@H]2C[C@H](C)CN2C(=O)[C@H](CCc2cc(F)c(C(F)(F)F)c(F)c2)NC(=O)CN(C)C(=O)[C@H](Cc2ccc(C(F)(F)F)cc2)N2CC/C=C\C[C@@H](C2=O)N(C)C(=O)CN(C)C1=O [PP2268]
[1]
  HRAS/KRAS (ratio of KD value for HRAS to KD value for KRAS): A (a compound having 10 or more and less than 20 is denoted as A)
[2]
  Kd: 0.12 nM
[3]
  NRAS/KRAS (ratio of KD value for NRAS to KD value for KRAS): A (a compound having 10 or more and less than 20 is denoted as A)

## CCO[C@@H]1C[C@H]2C(=O)NC3(CCCC3)C(=O)N(C)[C@@H](C3CCCC3)C(=O)N(C)[C@H](C(=O)N(C)C)CC(=O)N(C)[C@@H](CC(C)C)C(=O)N[C@@H]([C@@H](C)CC)C(=O)N(C)CC(=O)N(C)[C@H]3C/C=C\CCN(C3=O)[C@@H](Cc3ccc(C(F)(F)F)cc3)C(=O)N(C)CC(=O)N[C@@H](CCc3cc(F)c(Cl)c(F)c3)C(=O)N2C1 [PP2269]
[1]
  HRAS/KRAS (ratio of KD value for HRAS to KD value for KRAS): A (a compound having 10 or more and less than 20 is denoted as A)
[2]
  Kd: 0.38 nM
[3]
  NRAS/KRAS (ratio of KD value for NRAS to KD value for KRAS): A (a compound having 10 or more and less than 20 is denoted as A)

## CCC[C@H]1C(=O)N[C@@H]([C@@H](C)CC)C(=O)N(C)CC(=O)N(C)[C@H]2C/C=C\CCN(C2=O)[C@@H](Cc2ccc(C(F)(F)F)cc2)C(=O)N(C)CC(=O)N[C@@H](CCc2ccc(C(F)(F)F)c(Cl)c2)C(=O)N2C[C@@H](C)C[C@H]2C(=O)NC2(CC(C)(C)C2)C(=O)N(C)[C@@H](C2CCCC2)C(=O)N(C)[C@H](C(=O)N(C)C)CC(=O)N1C [PP2270]
[1]
  HRAS/KRAS (ratio of KD value for HRAS to KD value for KRAS): B (a compound having 3 or more and less than 10 is denoted as B)
[2]
  Kd: 0.24 nM
[3]
  NRAS/KRAS (ratio of KD value for NRAS to KD value for KRAS): B (a compound having 3 or more and less than 10 is denoted as B)

## CC[C@@H]1C[C@H]2C(=O)NC3(CCCC3)C(=O)N(C)[C@@H](C3CCCC3)C(=O)N(C)[C@H](C(=O)N(C)CC)CC(=O)N(C)[C@@H](C)C(=O)N[C@@H]([C@@H](C)CC)C(=O)N(C)CC(=O)N(C)[C@H]3C/C=C\CCN(C3=O)[C@@H](Cc3ccc(C(F)(F)F)cc3)C(=O)N(C)CC(=O)N[C@@H](CCc3cc(F)c(C(F)(F)F)c(F)c3)C(=O)N2C1 [PP2271]
[1]
  HRAS/KRAS (ratio of KD value for HRAS to KD value for KRAS): A (a compound having 10 or more and less than 20 is denoted as A)
[2]
  Kd: 0.29 nM
[3]
  NRAS/KRAS (ratio of KD value for NRAS to KD value for KRAS): A (a compound having 10 or more and less than 20 is denoted as A)

## CCC[C@@H]1C[C@H]2C(=O)NC3(CCCC3)C(=O)N(C)[C@@H](C3CCCC3)C(=O)N(C)[C@H](C(=O)N(C)CC)CC(=O)N(C)[C@@H](C)C(=O)N[C@@H]([C@@H](C)CC)C(=O)N(C)CC(=O)N(C)[C@H]3C/C=C\CCN(C3=O)[C@@H](Cc3ccc(C(F)(F)F)cc3)C(=O)N(C)CC(=O)N[C@@H](CCc3cc(F)c(C(F)(F)F)c(F)c3)C(=O)N2C1 [PP2272]
[1]
  HRAS/KRAS (ratio of KD value for HRAS to KD value for KRAS): A (a compound having 10 or more and less than 20 is denoted as A)
[2]
  Kd: 0.49 nM
[3]
  NRAS/KRAS (ratio of KD value for NRAS to KD value for KRAS): AA (a compound having 20 or more is denoted as AA)

## CCC[C@@H]1C[C@H]2C(=O)NC3(CC(C)(C)C3)C(=O)N(C)[C@@H](C3CCCC3)C(=O)N(C)[C@H](C(=O)N(C)C)CC(=O)N(C)[C@@H](COC)C(=O)N[C@@H]([C@@H](C)CC)C(=O)N(C)CC(=O)N(C)[C@H]3C/C=C\CCN(C3=O)[C@@H](Cc3ccc(C(F)(F)F)cc3)C(=O)N(C)CC(=O)N[C@@H](CCc3ccc(C(F)(F)F)c(Cl)c3)C(=O)N2C1 [PP2275]
[1]
  HRAS/KRAS (ratio of KD value for HRAS to KD value for KRAS): A (a compound having 10 or more and less than 20 is denoted as A)
[2]
  Kd: 0.36 nM
[3]
  NRAS/KRAS (ratio of KD value for NRAS to KD value for KRAS): A (a compound having 10 or more and less than 20 is denoted as A)
